Measurements: patent publication US11091496B2, “Opioid ketal compounds and uses thereof” (priority 2013, dated 2021)
Read-outs that look alike come from different tables or passages of the source. Marks after values point to notes of the source that are not given here.

Key:
[1] = 5% acetic acid 100° C.; for % Oxycodone, % IVA-IVD in hydrolysis mixture: unreacted oxycodone + four isomers of Formula IV, 1 mg/ml
[2] = type: physicochemical; details: for extent of hydrolysis to hydrocodone in about 4 hours: FIG. 5, FIG. 6; for % hydrocodone, % Ketal in hydrolysis mixture: hydrocodone 1,3-propanediol ketal; for % hydrocodone, % Ketal in hydrolysis mixture / Hydrocodone, 2S,5S ketal in hydrolysis mixture / Hydrocodone, 2R,5R ketal in hydrolysis mixture: 1 mg/ml; for % Oxycodone, % IVA-IVD in hydrolysis mixture: total 1 mg/ml; for relative rate of hydrolysis: comparison of stereoisomers; for Hydrocodone, 2S,5S ketal in hydrolysis mixture: hydrocodone 2S,5S-hexanediol ketal tested separately; for Hydrocodone, 2R,5R ketal in hydrolysis mixture: hydrocodone 2R,5R-hexanediol ketal tested separately
[3] = Ketal hydrolysis at varying pH, buffers at 37° C.; details: 1 mg/ml; for hydrolysis of the ketal: 37° C.
[4] = mixture of isomers, 0.1 N HCl 37° C.

Molecule: COc1ccc2c3c1O[C@H]1C4(CCC5(O)[C@@H](C2)N(C)CC[C@]315)OCCC(C)O4 (stereo partly shown) [Formula V, oxycodone 1,3-butanediol ketal]
- time to almost completely hydrolyze to oxycodone ([1]; FIG. 12, FIG. 13): at least 4 hours
- time to about 60% hydrolysis ([1]; FIG. 13): about 1 hour
- time at which about 50% of the oxycodone is released [2, 4]: about 5 hours
- time by which about (almost) 90% oxycodone release occurs [2, 4]: ≤ 25 h

Molecule: COc1ccc2c3c1O[C@H]1C4(CCC5[C@@H](C2)N(C)CC[C@@]351)OCCCO4 (stereo partly shown) [Hydrocodone 1,3-propanediol ketal]
- extent of hydrolysis to hydrocodone in about 4 hours ([2]; 0.1 N HCl 37° C.): nearly complete hydrolysis
- % hydrocodone, % Ketal in hydrolysis mixture ([2]; 0.1 N HCl 37° C., 0 h): 93.1%
- % hydrocodone, % Ketal in hydrolysis mixture ([2]; 0.1 N HCl 37° C., 0.57 h): 65.7%
- % hydrocodone, % Ketal in hydrolysis mixture ([2]; 0.1 N HCl 37° C., 1.25 h): 52.3%
- % hydrocodone, % Ketal in hydrolysis mixture ([2]; 0.1 N HCl 37° C., 2 h): 41.8%
- % hydrocodone, % Ketal in hydrolysis mixture ([2]; 0.1 N HCl 37° C., 3 h): 32.8%
- % hydrocodone, % Ketal in hydrolysis mixture ([2]; 0.1 N HCl 37° C., 4 h): 25.6%

Molecule: COc1ccc2c3c1O[C@H]1[C@]4(CCC5(O)[C@@H](C2)N(C)CC[C@]315)O[C@H](C)C[C@H](C)O4 (stereo partly drawn) [IVA, oxycodone 2R,4S-pentanediol ketal]
- % Oxycodone, % IVA-IVD in hydrolysis mixture ([1]; 0 h): 24%
- % Oxycodone, % IVA-IVD in hydrolysis mixture ([1]; 0.5 h): 21.1%
- % Oxycodone, % IVA-IVD in hydrolysis mixture ([1]; 1 h): 15.8%
- % Oxycodone, % IVA-IVD in hydrolysis mixture ([1]; 2 h): 6%
- % Oxycodone, % IVA-IVD in hydrolysis mixture ([1]; 4.35 h): 3.1%
- % Oxycodone, % IVA-IVD in hydrolysis mixture ([1]; 10 h): 0%
- % Oxycodone, % IVA-IVD in hydrolysis mixture ([2]; 0.1 N HCl 37° C., 0 h): 24.7%
- % Oxycodone, % IVA-IVD in hydrolysis mixture ([2]; 0.1 N HCl 37° C., 0.583 h): 25.9%
- % Oxycodone, % IVA-IVD in hydrolysis mixture ([2]; 0.1 N HCl 37° C., 1.167 h): 25.6%
- % Oxycodone, % IVA-IVD in hydrolysis mixture ([2]; 0.1 N HCl 37° C., 1.75 h): 25%
- % Oxycodone, % IVA-IVD in hydrolysis mixture ([2]; 0.1 N HCl 37° C., 2.33 h): 25.9%
- % Oxycodone, % IVA-IVD in hydrolysis mixture ([2]; 0.1 N HCl 37° C., 2.92 h): 24.8%
- % Oxycodone, % IVA-IVD in hydrolysis mixture ([2]; 0.1 N HCl 37° C., 4 h): 23.7%
- % Oxycodone, % IVA-IVD in hydrolysis mixture ([2]; 0.1 N HCl 37° C., 6.5 h): 19.8%
- % Oxycodone, % IVA-IVD in hydrolysis mixture ([2]; 0.1 N HCl 37° C., 9.75 h): 15.6%
- % Oxycodone, % IVA-IVD in hydrolysis mixture ([2]; 0.1 N HCl 37° C., 13.75 h): 9.9%
- % Oxycodone, % IVA-IVD in hydrolysis mixture ([2]; 0.1 N HCl 37° C., 25 h): 4.3%

Molecule: COc1ccc2c3c1O[C@H]1[C@@]4(CCC5(O)[C@@H](C2)N(C)CC[C@]315)O[C@H](C)C[C@H](C)O4 (stereo partly drawn) [IVB, oxycodone 2S,4R-pentanediol ketal]
- % Oxycodone, % IVA-IVD in hydrolysis mixture ([1]; 0 h): 10.9%
- % Oxycodone, % IVA-IVD in hydrolysis mixture ([1]; 0.5 h): 8.7%
- % Oxycodone, % IVA-IVD in hydrolysis mixture ([1]; 1 h): 9.7%
- % Oxycodone, % IVA-IVD in hydrolysis mixture ([1]; 2 h): 9.2%
- % Oxycodone, % IVA-IVD in hydrolysis mixture ([1]; 4.35 h): 9%
- % Oxycodone, % IVA-IVD in hydrolysis mixture ([1]; 10 h): 4.8%
- % Oxycodone, % IVA-IVD in hydrolysis mixture ([2]; 0.1 N HCl 37° C., 0 h): 10.7%
- % Oxycodone, % IVA-IVD in hydrolysis mixture ([2]; 0.1 N HCl 37° C., 0.583 h): 10.6%
- % Oxycodone, % IVA-IVD in hydrolysis mixture ([2]; 0.1 N HCl 37° C., 1.167 h): 10.7%
- % Oxycodone, % IVA-IVD in hydrolysis mixture ([2]; 0.1 N HCl 37° C., 1.75 h): 7.8%
- % Oxycodone, % IVA-IVD in hydrolysis mixture ([2]; 0.1 N HCl 37° C., 2.33 h): 8.3%
- % Oxycodone, % IVA-IVD in hydrolysis mixture ([2]; 0.1 N HCl 37° C., 2.92 h): 8.7%
- % Oxycodone, % IVA-IVD in hydrolysis mixture ([2]; 0.1 N HCl 37° C., 4 h): 9.2%
- % Oxycodone, % IVA-IVD in hydrolysis mixture ([2]; 0.1 N HCl 37° C., 6.5 h): 10%
- % Oxycodone, % IVA-IVD in hydrolysis mixture ([2]; 0.1 N HCl 37° C., 9.75 h): 10.2%
- % Oxycodone, % IVA-IVD in hydrolysis mixture ([2]; 0.1 N HCl 37° C., 13.75 h): 10.4%
- % Oxycodone, % IVA-IVD in hydrolysis mixture ([2]; 0.1 N HCl 37° C., 25 h): 9.3%

Molecule: Hydrocodone 2R,4R-pentanediol ketal
- hydrolysis of the ketal ([3]; pH 1, 0 h): 0
- hydrolysis of the ketal ([3]; pH 1, 0.33 h): 50
- hydrolysis of the ketal ([3]; pH 1, 1 h): 90
- hydrolysis of the ketal ([3]; pH 1, 2 h): 99.8
- hydrolysis of the ketal ([3]; pH 1, 4 h): 100
- hydrolysis of the ketal ([3]; pH 1.5, 0 h): 0
- hydrolysis of the ketal ([3]; pH 1.5, 0.33 h): 30.6
- hydrolysis of the ketal ([3]; pH 1.5, 1 h): 59.4
- hydrolysis of the ketal ([3]; pH 1.5, 2 h): 85.1
- hydrolysis of the ketal ([3]; pH 1.5, 4 h): 98.2
- hydrolysis of the ketal ([3]; pH 2, 0 h): 0
- hydrolysis of the ketal ([3]; pH 2, 0.33 h): 8.3
- hydrolysis of the ketal ([3]; pH 2, 1 h): 21.9
- hydrolysis of the ketal ([3]; pH 2, 2 h): 37.7
- hydrolysis of the ketal ([3]; pH 2, 4 h): 58.2
- hydrolysis of the ketal ([3]; pH 2.5, 0 h): 0
- hydrolysis of the ketal ([3]; pH 2.5, 0.33 h): 0
- hydrolysis of the ketal ([3]; pH 2.5, 1 h): 0
- hydrolysis of the ketal ([3]; pH 2.5, 2 h): 15.9
- hydrolysis of the ketal ([3]; pH 2.5, 4 h): 26.4
- hydrolysis of the ketal ([3]; pH 3, 0 h): 0
- hydrolysis of the ketal ([3]; pH 3, 0.33 h): 0
- hydrolysis of the ketal ([3]; pH 3, 1 h): 0
- hydrolysis of the ketal ([3]; pH 3, 2 h): 5.9
- hydrolysis of the ketal ([3]; pH 3, 4 h): 12.7
- hydrolysis of the ketal ([3]; pH 4, 4 h, estimated from longer hydrolysis times): 1.3*
- hydrolysis of the ketal ([3]; pH 5, 4 h, estimated from longer hydrolysis times): 0.15*
- hydrolysis of the ketal ([3]; pH 7, 4 h, estimated from longer hydrolysis times): 0.01*
- hydrolysis of the ketal ([3]; pH 12, 4 h, estimated from longer hydrolysis times): 0.01*
- pH at which hydrolysis of the ketal is fastest ([3]; pH buffers 37° C.): fastest at pH 1

Molecule: Hydrocodone 2S,5S-hexanediol ketal [2S,5S ketal]
- relative rate of hydrolysis [2]: hydrolyzes relatively slowly
- Hydrocodone, 2S,5S ketal in hydrolysis mixture ([2]; 0.1 N HCl 37° C., 0 h): 81.98
- Hydrocodone, 2S,5S ketal in hydrolysis mixture ([2]; 0.1 N HCl 37° C., 0.5 h): 52.18
- Hydrocodone, 2S,5S ketal in hydrolysis mixture ([2]; 0.1 N HCl 37° C., 1.25 h): 35.11
- Hydrocodone, 2S,5S ketal in hydrolysis mixture ([2]; 0.1 N HCl 37° C., 2 h): 10.19
- Hydrocodone, 2S,5S ketal in hydrolysis mixture ([2]; 0.1 N HCl 37° C., 3 h): 4.29
- Hydrocodone, 2S,5S ketal in hydrolysis mixture ([2]; 0.1 N HCl 37° C., 4 h): 2

Molecule: hydrocodone 2,5-hexanediol ketal
- extent of hydrolysis to hydrocodone in about 4 hours ([2]; 0.1 N HCl 37° C.): nearly complete hydrolysis

Molecule: hydrocodone 2R,5R-hexanediol ketal [2R,5R ketal]
- relative rate of hydrolysis [2]: hydrolyzes relatively quickly
- Hydrocodone, 2R,5R ketal in hydrolysis mixture ([2]; 0.1 N HCl 37° C., 0 h): 73.88
- Hydrocodone, 2R,5R ketal in hydrolysis mixture ([2]; 0.1 N HCl 37° C., 0.5 h): 34.6
- Hydrocodone, 2R,5R ketal in hydrolysis mixture ([2]; 0.1 N HCl 37° C., 1.25 h): 11.37
- Hydrocodone, 2R,5R ketal in hydrolysis mixture ([2]; 0.1 N HCl 37° C., 2 h): 2.67
- Hydrocodone, 2R,5R ketal in hydrolysis mixture ([2]; 0.1 N HCl 37° C., 3 h): 0
- Hydrocodone, 2R,5R ketal in hydrolysis mixture ([2]; 0.1 N HCl 37° C., 4 h): 0

Molecule: oxycodone cis 1,2-cyclohexanedimethanol ketals
- proportion of oxycodone in the mixture ([2]; 0.1 N HCl 37° C., within five hours, FIG. 4): increased from about 30% to about 55%
